Reference: US11555032B2, “Isoxazole derivatives as FXR agonists and methods of use thereof” (Enanta Pharmaceuticals, Inc., priority 2019, dated 2023)

The compounds below were run against T1, human FXR (NR1H4) (Homo sapiens, UniProt Q96RI1) (assay: Human FXR (NRIH4) Assay, luciferase reporter). Details: CHO reporter cells expressing human NR1H4, luciferase, 22 hours incubation.
T1 construct: host or cells: CHO (Chinese hamster ovary) reporter cells
T1 sequence (Q96RI1 1-486): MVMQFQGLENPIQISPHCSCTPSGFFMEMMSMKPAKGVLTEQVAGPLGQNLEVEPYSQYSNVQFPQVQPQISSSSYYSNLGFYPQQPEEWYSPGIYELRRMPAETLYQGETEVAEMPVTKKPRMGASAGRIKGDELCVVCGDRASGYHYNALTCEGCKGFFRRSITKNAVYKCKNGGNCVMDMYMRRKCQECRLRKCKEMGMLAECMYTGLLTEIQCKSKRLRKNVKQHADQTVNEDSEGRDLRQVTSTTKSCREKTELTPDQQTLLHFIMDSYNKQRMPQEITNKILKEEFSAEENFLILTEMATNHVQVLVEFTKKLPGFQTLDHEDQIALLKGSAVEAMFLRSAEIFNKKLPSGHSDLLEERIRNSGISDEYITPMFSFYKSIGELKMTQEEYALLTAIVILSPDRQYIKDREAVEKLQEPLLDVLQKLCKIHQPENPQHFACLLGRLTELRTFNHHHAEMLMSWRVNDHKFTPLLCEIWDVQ
Format: cell-based
From the text: Determination of a ligand mediated Gal4 promoter driven transactivation to quantify ligand binding mediated activation of FXR. FXR Reporter Assay kit purchased from Indigo Bioscience (Catalogue number: IB00601) to determine the potency and efficacy of compound developed by Enanta that can induce FXR activation. The principle application of this reporter assay system is to quantify functional activity of human FXR. The assay utilizes non-human mammalian cells, CHO (Chinese hamster ovary) cells engineered to express human NR1H4 protein (referred to as FXR). Reporter cells also incorporate the cDNA encoding beetle luciferase which catalyzes the substrates and yields photon emission. Luminescence intensity of the reaction is quantified using a plate-reading luminometer, Envision. Reporter Cells include the luciferase reporter gene functionally linked to an FXR responsive promoter. Thus, quantifying changes in luciferase expression in the treated reporter cells provides a sensitive surrogate measure of the changes in FXR activity. EC50 and efficacy (normalize to CDCA set as 100%) is determined by XLFit. The assay is according to the manufacturer's instructions. In brief, the assay was performed in white, 96 well plates using final volume of 100 ul containing cells with different doses of compounds. Retrieve Reporter Cells from −80° C. storage. Perform a rapid thaw of the frozen cells by transferring a 10 ml volume of 37° C. cell recovery medium into the tube of frozen cells. Recap the tube of Reporter Cells and immediately place it in a 37° C. water bath for 5-10 minutes. Retrieve the tube of Reporter Cell Suspension from the water bath. Sanitize the outside surface of the tube with a 70% alcohol swab, and then transfer it into the cell culture hood. Dispense 90 μl of cell suspension into each well of the 96-well Assay Plate. Transfer the plate into 37° C. incubator, allowing the cells adherent to the bottom of the well. Dilute compounds in Dilution Plate (DP), and administrate to cells at Assay Plate (AP). DMSO content of the samples was kept at 0.2%. Cells were incubated for additional 22 hours before luciferase activities were measured. Thirty minutes before intending to quantify FXR activity, remove Detection Substrate and Detection Buffer from the refrigerator and place them in a low-light area so that they may equilibrate to room temperature. Remove the plate's lid and discard all media contents by ejecting it into an appropriate waste container. Gently tap the inverted plate onto a clean absorbent paper towel to remove residual droplets. Cells will remain tightly adhered to well bottoms. Add 100 μl of luciferase detection reagent to each well of the assay plate. Allow the assay plate to rest at room temperature for at least 5 minutes following the addition of LDR. Set the instrument (Envision) to perform a single 5 second “plate shake” prior to reading the first assay well. Read time may be 0.5 second (500 mSec) per well. EC50 and Efficacy (normalize to CDCA set as 100%) is determined by XLFit.
The efficacy was normalized to CDCA set as 100%.

**Q.** `Fc1c(Br)cccc1CNC1C2CCC1CC(OCc1c(-c3ccccc3OC(F)(F)F)noc1C1CC1)C2` [Example 15, (1R,3r,5S,8s)-N-(3-bromo-2-fluorobenzyl)-3-((5-cyclopropyl-3-(2-(trifluoromethoxy)phenyl)isoxazol-4-yl)methoxy)bicyclo[3.2.1]octan-8-amine] was tested. Which EC50 did it give?
**A.** 25 to 500 nM

**Q.** For `Fc1ccc(CCNC2C3CCC2CC(OCc2c(-c4ccccc4OC(F)(F)F)noc2C2CC2)C3)cc1` (centres unmarked) [Example 15-2], which EC50 is on record?
**A.** > 500 nM

**Q.** Which EC50 does the source give for `O=C(O)c1cc(F)c2nc(NC3C4CCC3CC(NCc3c(-c5ccccc5OC(F)(F)F)noc3C3CC3)C4)sc2c1` (centres unmarked) [Example 16] here?
**A.** 25 to 500 nM

**Q.** For `O=C(O)c1ccc2c(c1)CN(C1C3CCC1CC(OCc1c(-c4c(Cl)cccc4Cl)noc1C1CC1)C3)C2` (centres unmarked) [Example 17], which EC50 is on record?
**A.** 25 to 500 nM

**Q.** For `CC(C)Oc1cc(C(=O)O)cc2sc(OC3C4CCC3CC(OCc3c(-c5ccccc5OC(F)(F)F)noc3C3CC3)C4)nc12` (centres unmarked) [Example 18], which EC50 is on record?
**A.** 25 to 500 nM

**Q.** `FC(F)(F)Oc1ccccc1-c1noc(C2CC2)c1COC1CC2CCC(C1)C2Nc1cnc2cc(-c3nnn[nH]3)ccc2n1` (centres unmarked) [Example 25] was tested. Which EC50 did it give?
**A.** 25 to 500 nM

**Q.** `O=C(O)c1cc(F)cc2ncc(NC3C4CCC3CC(OCc3c(-c5ccccc5OC(F)(F)F)noc3C3CC3)C4)nc12` (centres unmarked) [Example 26] was tested. Which EC50 did it give?
**A.** > 500 nM

**Q.** `N#Cc1cc(C2CC2)cc2nc(NC3C4CCC3CC(OCc3c(-c5ccccc5OC(F)(F)F)noc3C3CC3)C4)cnc12` (centres unmarked) [Example 27] was tested. Which EC50 did it give?
**A.** 25 to 500 nM

**Q.** Which EC50 does the source give for `FC(F)(F)Oc1ccccc1-c1noc(C2CC2)c1COC1CC2CCC(C1)C2Nc1cnc2c(-c3nnn[nH]3)cc(C3CC3)cc2n1` (centres unmarked) [Example 28] here?
**A.** < 25 nM

**Q.** For `O=C(O)c1ccc2nc(NC3C4CCC3CC(OCc3c(-c5ccccc5OC(F)(F)F)noc3C3CC3)C4)cnc2c1` (centres unmarked) [Example 29], which EC50 is on record?
**A.** < 25 nM

**Q.** `O=C(O)c1cc(C2CC2)cc2nc(NC3C4CCC3CC(OCc3c(-c5ccccc5OC(F)(F)F)noc3C3CC3)C4)cnc12` (centres unmarked) [Example 30] was tested. Which EC50 did it give?
**A.** < 25 nM

**Q.** For `O=C(O)c1ccc2ccc(NC3C4CCC3CC(OCc3c(-c5ccccc5OC(F)(F)F)noc3C3CC3)C4)nc2c1` (centres unmarked) [Example 31], which EC50 is on record?
**A.** 25 to 500 nM

**Q.** With `Fc1cc(-c2nnn[nH]2)c2ncc(NC3C4CCC3CC(OCc3c(-c5ccccc5OC(F)(F)F)noc3C3CC3)C4)nc2c1` (centres unmarked) [Example 32] as the compound, how does the EC50 read?
**A.** < 25 nM

**Q.** For `CC1(S(=O)(=O)NC(=O)c2cccc3nc(NC4C5CCC4CC(OCc4c(-c6ccccc6OC(F)(F)F)noc4C4CC4)C5)cnc23)CC1` (centres unmarked) [Example 33], which EC50 is on record?
**A.** < 25 nM

**Q.** For `O=C(NS(=O)(=O)C1CC1)c1cccc2nc(NC3C4CCC3CC(OCc3c(-c5ccccc5OC(F)(F)F)noc3C3CC3)C4)cnc12` (centres unmarked) [Example 34], which EC50 is on record?
**A.** < 25 nM

**Q.** How did the EC50 turn out when `N#Cc1ccc2nc(NC3C4CCC3CC(OCc3c(-c5ccccc5OC(F)(F)F)noc3C3CC3)C4)cnc2c1` (centres unmarked) [Example 35] was run?
**A.** < 25 nM

**Q.** For `O=C(O)c1cc(C2CC2)c2nc(NC3C4CCC3CC(OCc3c(-c5ccccc5OC(F)(F)F)noc3C3CC3)C4)sc2c1` (centres unmarked) [Example 36], which EC50 is on record?
**A.** < 25 nM

**Q.** Which EC50 does the source give for `O=C(O)c1cc(OC(F)(F)F)c2nc(NC3C4CCC3CC(OCc3c(-c5ccccc5OC(F)(F)F)noc3C3CC3)C4)sc2c1` (centres unmarked) [Example 37] here?
**A.** < 25 nM

**Q.** For `N#Cc1cc(C2CC2)c2nc(NC3C4CCC3CC(OCc3c(-c5ccccc5OC(F)(F)F)noc3C3CC3)C4)sc2c1` (centres unmarked) [Example 38], which EC50 is on record?
**A.** 25 to 500 nM

**Q.** For `O=C(O)c1cc(F)cc2nc(NC3C4CCC3CC(OCc3c(-c5ccccc5OC(F)(F)F)noc3C3CC3)C4)cnc12` (centres unmarked) [Example 39], which EC50 is on record?
**A.** < 25 nM

**Q.** How did the EC50 turn out when `N#Cc1cc(F)cc2nc(NC3C4CCC3CC(OCc3c(-c5ccccc5OC(F)(F)F)noc3C3CC3)C4)cnc12` (centres unmarked) [Example 40] was run?
**A.** < 25 nM

**Q.** How did the EC50 turn out when `O=C(O)c1ccc2nc(NC3C4CCC3CC(OCc3c(-c5ccccc5OC(F)(F)F)noc3C3CC3)C4)cnc2c1` (centres unmarked) [Example 41] was run?
**A.** < 25 nM

**Q.** Which EC50 does the source give for `O=C(O)c1cc(F)c2nc(S(=O)(=O)C3C4CCC3CC(OCc3c(-c5ccccc5OC(F)(F)F)noc3C3CC3)C4)sc2c1` (centres unmarked) [Example 45] here?
**A.** 25 to 500 nM

**Q.** With `FC(F)(F)Oc1ccccc1-c1noc(C2CC2)c1COC1CC2CCC(C1)C2Nc1cnc2c(-c3nnn[nH]3)cccc2n1` (centres unmarked) [Example 46] as the compound, how does the EC50 read?
**A.** < 25 nM

**Q.** How did the EC50 turn out when `N#Cc1cccc2ncc(NC3C4CCC3CC(OCc3c(-c5ccccc5OC(F)(F)F)noc3C3CC3)C4)nc12` (centres unmarked) [Example 47] was run?
**A.** 25 to 500 nM

**Q.** Which EC50 does the source give for `N#Cc1cccc2nc(NC3C4CCC3CC(OCc3c(-c5ccccc5OC(F)(F)F)noc3C3CC3)C4)cnc12` (centres unmarked) [Example 48] here?
**A.** < 25 nM
